Reference: US20050153951A1, “Neurotrophic pyrrolidines and piperidines, and related compositions and methods” (priority 1999, published 2005)
“And” between values parts separate entries of the source, which are not always exact repeats. Equal values may be shown once.

Key:
[1] = tested on: Human M17 Neuroblastoma Cells; experiment: Neurite outgrowth assay, M17 neuroblastoma cells; type: cell-based; details: MAP-2 immunofluorescence; active if greater than mean DMSO-treated control on the same plate
Procedure: M17 human neuroblastoma cells are cultured in 1:1 ratio of EMEM and Hams's F12 with 1×NEM and 10% FBS. The culture media contains 1×PSN antibiotic and is exchanged every other day, and the cells are passed in log phase near confluence.
(§1) Cultures are incubated with normal horse serum (1:50; Vector Labs) for about 20 min, rinsed and then incubated with primary antibody, microtubule associated-protein 2 (anti-mouse MAP-2; 1:1000; Chemicon) for about 2 h at about RT. Following primary antibody, cultures are rinsed and incubated with fluorescein anti-mouse IgG (rat absorbed; 1:50; Vector Labs) for about 1 h. After fluorescein incubation, the cultures are rinsed and read in PBS on a fluorescent plate reader (excitation: 485 nm; emission: 530 nm). […] The response to test compound is reported as percent of DMSO-treated control.

[2] = tested on: Dorsal Root Ganglion (DRG); experiment: Dorsal Root Ganglion (DRG) culture, neurite outgrowth; type: cell-based, rat; design: key: +: Positive results for each experiment; −: Negative results for each experiment; details: test compound 50-250 nM; neurite outgrowth examined days 1-5; positive if neurites of ≧1 diameter of the DRG; one symbol per experiment
Procedure: DRG are dissected from newborn or 1-day-old CD rats and placed into PBS on ice. After rinsing twice with sterile plating medium, DRG are transferred to empty wells of a 6-well plate coated with polyornithine/laminin (Becton Dickinson Labware) using #7 curved forceps. Three ml/well of plating medium are then added very gently, so as not to disturb the DRG. Plating medium is Leibovitz's L-15 medium (Gibco), plus 0.6% glucose, 33 mM KCl, 10% FCS, 10 mM Hepes and penicillin/streptomycin/glutamine. After overnight incubation at about 37° C. in 5% CO2, this medium is replaced with 3 mL/well of assay medium [Leibovitz's L-15 medium plus 0.6% glucose, 1% FCS, 1% N-2 supplement (Gibco), 10 μM ara-C, 10 mM Hepes, and penicillin/streptomycin/glutamine] containing either vehicle (DMSO, 1/200,000), positive control (24 ng/mL NGF) or test compound (50-250 nM). All media are prepared fresh daily. DRG are microscopically examined for neurite outgrowth on days 1-5.

[3] = tested on: Primary Rat Hippocampal Cells; experiment: Neurite outgrowth assay, primary rat hippocampal cells; type: cell-based; details: MAP-2 immunofluorescence; active if greater than mean DMSO-treated control on the same plate
Procedure: Hippocampal cells are dissected from the brains of embryonic day 18 rat pups and dissociated with trypsin (1 mg/mL) and trituration. Cells are seeded at 30,000 cells/well in 96-well plates filled with 100 μL MEM and 10% FBS. At 7 days in culture, cells are fixed with 4% paraformaldehyde and immuno-fluorescence is performed.
as §1

facial nerve = experiment: Rat facial nerve compression model; type: in vivo; details: p.o. about 20 mg/kg twice a day for 15 days; compared to vehicle and internal control; FIG. 1
Procedure: In this model, compressing the facial nerve causes paralysis of the whisker muscle on that side of the face. The untreated facial nerve on the other side functions as an internal control. […] The whisker movement recovery rate on the paralyzed side compared to the vehicle and internal control is shown in this FIGURE.
Long-Evans rats are anesthetized under ketamine (60 mg/kg)/xylazine (6 mg/kg). The facial nerve is exposed and mechanically compressed with forceps near the stylomastoid foramen unilaterally with the opposite, non-lesioned side serving as an internal control. […] Rats received test compound p.o. at about 20 mg/kg twice a day for 15 days after the surgery. Control rats received vehicle only. Three to eight rats are tested in each group. Restoration of whisker movement after the treatment with compounds of the present invention is recorded at different post-operative time points daily, up to two weeks, and is shown in FIG. 1.

[4] = tested on: PC12 cells and sensory ganglia; details: cultures of PC12 cells and sensory ganglia; Lyons et al. 1994; cited from earlier work

SMILES | M17 Cell Response [1] | Rat Hippocampal Cell Response [3] | further results
O=C(NCc1cccnc1)c1ncoc1[C@@H]1CCCN1C(=O)OCc1ccccc1 [Compound 1] | 103% of DMSO-treated control |  | DRG [2]: −
O=S(=O)(Cc1ccccc1)N1CCCC1c1nnc([C@@H]2CCCN2S(=O)(=O)Cc2ccccc2)o1 (some centres unmarked) [Compound 54] |  | 113% of DMSO-treated control | 
CCC(C)(C)C(=O)C(=O)N1CCCC1c1nnc([C@@H]2CCCN2C(=O)C(=O)C(C)(C)CC)o1 (some centres unmarked) [Compound 30] | 112% of DMSO-treated control and 103% of DMSO-treated control | 161% of DMSO-treated control and 118% of DMSO-treated control and 130% of DMSO-treated control | DRG [2]: +, +, +, +, +; Restoration of whisker movement on the paralyzed side (facial nerve): restored more rapidly
CCC(C)(C)C(=O)C(=O)N1CCC[C@@H]1c1nnc([C@H]2CCCN2C(=O)C(=O)C(C)(C)CC)o1 [Compound 64] |  | 122% of DMSO-treated control | 
CCC(C)(C)C(=O)C(=O)N1CCCCC1c1nnc([C@@H]2CCCCN2C(=O)C(=O)C(C)(C)CC)o1 (some centres unmarked) [Compound 44] | 118% of DMSO-treated control |  | 
CCC(C)(C)C(=O)C(=O)N1CCC[C@H]1C(=O)NNC(=O)[C@@H]1CCCN1C(=O)C(=O)C(C)(C)CC [Compound 24] | 123% of DMSO-treated control | 119% of DMSO-treated control and 104% of DMSO-treated control and 108% of DMSO-treated control | DRG [2]: + and −
CCC(C)(C)C(=O)C(=O)N1CCC[C@H]1c1nnc(C2CCCN2)o1 (some centres unmarked) [Compound 55] |  | 116% of DMSO-treated control | 
CCC(C)(C)C(=O)C(=O)N1CCCC[C@H]1c1nnc(CCc2cc(OC)c(OC)c(OC)c2)o1 [Compound 39] | 112% of DMSO-treated control |  | 
O=C(NCc1cccnc1)c1csc([C@@H]2CCCN2C(=O)OCc2ccccc2)n1 [Compound 11] |  |  | DRG [2]: +
CCC(C)(C)C(=O)C(=O)N1CCCC[C@H]1c1nnc(CCc2cccnc2)o1 [Compound 38] | 105% of DMSO-treated control | 129% of DMSO-treated control | 
CCC(C)(C)C(=O)C(=O)N1CCC[C@H]1C(=O)NNC(=O)[C@@H]1CCCN1C(=O)OCc1ccccc1 [Compound 50] |  | 110% of DMSO-treated control | 
CCC(C)(C)C(=O)C(=O)N1CCC[C@H]1c1nnc(-c2cccnc2)o1 [Compound 60] |  | 114% of DMSO-treated control | 
COC(=O)C(=O)N1CCCC1c1nnc([C@@H]2CCCN2C(=O)C(=O)OC)o1 (some centres unmarked) [Compound 51] |  | 107% of DMSO-treated control | 
CCC(C)(C)C(=O)C(=O)N1CCC1c1nnc([C@@H]2CCN2C(=O)C(=O)C(C)(C)CC)o1 (some centres unmarked) [Compound 52] |  | 110% of DMSO-treated control | 
CCC(C)(C)C(=O)C(=O)N1CCC[C@H]1c1nc(C(=O)NCc2cccnc2)cs1 [Compound 14] | 112% of DMSO-treated control and 108% of DMSO-treated control | 116% of DMSO-treated control | 
CC(C)(C)C(=O)C(=O)N1CCCC1c1nnc([C@@H]2CCCN2C(=O)C(=O)C(C)(C)C)o1 (some centres unmarked) [Compound 62] |  | 120% of DMSO-treated control | 
O=C(OCc1cccnc1)c1ncoc1[C@@H]1CCCN1C(=O)OCc1ccccc1 [Compound 4] | 134% of DMSO-treated control and 111% of DMSO-treated control | 111% of DMSO-treated control and 123% of DMSO-treated control | DRG [2]: +

SMILES | M17 Cell Response [1] | Rat Hippocampal Cell Response [3] | further results
CCC(C)(C)C(=O)C(=O)N1CCCC[C@H]1C(=O)NNC(=O)[C@@H]1CCCCN1C(=O)C(=O)C(C)(C)CC [Compound 25] | 111% of DMSO-treated control | 108% of DMSO-treated control | 
CCC(C)(C)C(=O)C(=O)N1CCC[C@H]1c1nnc(CCc2cccnc2)o1 [Compound 33] | 104% of DMSO-treated control | 112% of DMSO-treated control | 
CCC(C)(C)C(=O)C(=O)N1CCC[C@H]1c1nc(COc2cccnc2)cs1 [Compound 19] | 110% of DMSO-treated control | 109% of DMSO-treated control | 
CCC(C)(C)C(=O)C(=O)N1CC[C@H]1C(=O)NNC(=O)[C@@H]1CCN1C(=O)C(=O)C(C)(C)CC [Compound 26] |  | 133% of DMSO-treated control | 
CCC(C)(C)C(=O)C(=O)N1CCC[C@H]1C(=O)NNC(=O)CCc1cc(OC)c(OC)c(OC)c1 [Compound 34] | 106% of DMSO-treated control | 113% of DMSO-treated control | 
CCC(C)(C)C(=O)C(=O)N1CSCC1c1nnc([C@@H]2CSCN2C(=O)C(=O)C(C)(C)CC)o1 (some centres unmarked) [Compound 58] |  | 142% of DMSO-treated control | 
O=C(NCc1cccnc1)c1csc([C@@H]2CCCN2S(=O)(=O)Cc2ccccc2)n1 [Compound 13] | 102% of DMSO-treated control |  | DRG [2]: −
C=CC[C@@H]1/C=C(\C)C[C@H](C)C[C@H](OC)[C@H]2O[C@@](O)(C(=O)C(=O)N3CCCC[C@H]3C(=O)O[C@H](/C(C)=C/[C@@H]3CC[C@@H](O)[C@H](OC)C3)[C@H](C)[C@@H](O)CC1=O)[C@H](C)C[C@@H]2OC [FK506] |  |  | neurotrophic activity [4]: shows neurotrophic activity
CCC(C)(C)C(=O)C(=O)N1CCCC[C@H]1C(=O)NNC(=O)CCc1cc(OC)c(OC)c(OC)c1 [Compound 37] | 111% of DMSO-treated control | 130% of DMSO-treated control | 
O=C(C(=O)N1CCCC1c1nnc([C@@H]2CCCN2C(=O)C(=O)c2cccs2)o1)c1cccs1 (some centres unmarked) [Compound 48] |  | 113% of DMSO-treated control | 
CCC(C)(C)C(=O)C(=O)N1CCC[C@H]1c1nc(CCc2cccnc2)no1 [Compound 31] | 111% of DMSO-treated control | 124% of DMSO-treated control | DRG [2]: + and −
O=C(NCc1cccnc1)c1ncoc1[C@@H]1CCCN1S(=O)(=O)Cc1ccccc1 [Compound 3] |  |  | DRG [2]: −
CCC(C)(C)C(=O)C(=O)N1CCCC1C(=O)NNC(=O)[C@H]1CCCN1C(=O)C(=O)C(C)(C)CC (some centres unmarked) [Compound 63] |  | 110% of DMSO-treated control | 
CCC(C)(C)C(=O)C(=O)N1CCC[C@H]1c1nnc(CCc2cc(OC)c(OC)c(OC)c2)o1 [Compound 35] | 106% of DMSO-treated control | 126% of DMSO-treated control | 
CCC(C)(C)C(=O)C(=O)N1CCC[C@H]1C(=O)NNC(=O)CCc1cccnc1 [Compound 32] | 103% of DMSO-treated control |  | 
COc1cc(C(=O)C(=O)N2CCCC2c2nnc([C@@H]3CCCN3C(=O)C(=O)c3cc(OC)c(OC)c(OC)c3)o2)cc(OC)c1OC (some centres unmarked) [Compound 56] |  | 118% of DMSO-treated control and 116% of DMSO-treated control | 
CCC(C)(C)C(=O)C(=O)N1CCC[C@H]1C(=O)NNC(=O)c1cccnc1 [Compound 59] |  | 116% of DMSO-treated control | 
